Where two headings read alike, the source gives them in different places.
What was measured:
HT1080 cancer cell line = experiment: MTT assay, doxorubicin with C2 or C2WY→AA peptide; format: cell-based; conditions: Homo sapiens
Method: The IC50 (half-maximal inhibitory concentration) values of doxorubicin for HT1080 cancer cell line treated with the C2 peptide ([…] (SEQ ID NO: 7)) or the C2WY→AA peptide ([…] (SEQ ID NO: 60)) were determined in normoxia or hypoxia.
Cells (5×10^3) were cultured in 96-well plates and preincubated under 21% O2 or 1% O2 for 4 h following the addition of doxorubicin (dose response from 10^−1 to 10^5 nM) in the presence or absence of C2 and C2WY→AA peptides (SEQ ID NOs: 7 and 60) for 72 h. Cell viability was measured using the MTT dye (Life Technologies) according to the manufacturer's instructions. Because hypoxic conditions may affect the reduction of MTT to formazan, incubation of all cell cultures with MTT were performed under normoxic conditions. Each experiment was performed in triplicate. Log-scale dose-response data were plotted on a graph and a three-parameter nonlinear regression was applied to determine IC50 values. Data are presented as the mean (nM).

[1] = test system: HT-1080 overexpressing NHE6^527-588 peptide; experiment: MTT cell viability assay in HT-1080 expressing NHE6^527-588 or scrambled peptide; format: cell-based, human; conditions: for IC50: Homo sapiens, read-out: IC50 of doxorubicin
Method: peGFP-N3-NHE6 was generously provided by Hiroshi Kanazawa (Osaka University, Japan). pcDNA3-HA/NHE6 was constructed from peGFP-N3-NHE6. For this, the entire NHE6 coding sequence was excised with BamHI and EcoRI restriction enzymes and cloned in pcDNA3-HA vector. pcDNA3-HA/NHE6^527-588 was designed from pcDNA3-HA/NHE6 using the following primers: […]
HT-1080 cells were stably transfected with Polyethylenimine (PEI, MirusBio) and positive cells were selected with Geneticin™ (G418) at 400 μg/mL. In the case of MDA-MB-231 cells, plasmids were transfected using Lipofectamine™ 2000 ([…]) and G418 was added to cell cultures at a concentration of 2 mg/mL.
Cells (5×10^3) were cultured in 96-well plates and pre-incubated under 21% O2 or 1% O2 for 4 h following the addition of drugs for 72 h. Cell viability was measured using the 3-(4,5-dimethylthiazol-2-yl)-2,5-diphenyltetrazolium bromide (MTT) dye (Life Technologies) according to manufacturer's instructions. Because hypoxic conditions may affect the reduction of MTT to formazan, incubation of all cell cultures with MTT were performed under normoxic conditions. Each experiment was performed in triplicate and at least three independent experiments were performed. Log-scale dose-response data were plotted on a graph and a three-parameter non-linear regression was applied to determine IC50 values. For calculation of the IC50s, both normoxic and hypoxic drug-treated samples were normalized with their untreated counterpart.
The middle portion (position 527-588) of the NHE6 cytoplasmic tail has previously been reported to interact with RACK1^31. Stable HT-1080 cells expressing the NHE6^527-588 fragment or a scrambled counterpart were generated.

HT-1080 tumor xenografts = experiment: Chorioallantoic membrane (CAM) xenograft assay, HT-1080; format: in vivo, chick embryo; conditions: HT-1080 on CAM
Method: Fertilized eggs from white leghorn chicken were obtained from Public Health Agency of Canada (Nepean, ON). Ethics approval was obtained from the Ethics Committee on Animal Research of the University of Sherbrooke and all experimental procedures involving embryos were conducted in accordance with the regulations of the Canadian Council on Animal Care. Eggs were incubated in an Ova-Easy egg incubator (Brinsea) at 37° C. with 60% humidity. At Day 3, eggs were cracked as described^67. At Day 9, HT-1080 and MDA-MB-231 cell suspensions (1×10^6 and 2×10^6 cells, respectively) were mixed (1:1) with growth factor reduced Matrigel (BD Biosciences) in a total volume of 20 μl. Cell grafts were placed on top of the CAM and eggs were returned to the incubator for 96 h until Day 13 (n>6 chick embryos per cell line). When mentioned, 50 μl of Dox were added topically to the formed tumors (Day 13 after tumor cell grafting). At Day 16, chick embryos were euthanatized by decapitation. Tumors were removed and tumor volumes were calculated using the formula: (Dd^2/3). For RNA quantification, tumors were immediately snap-frozen in liquid nitrogen and kept at −80° C. until RNA extraction using the Trizol reagent.
To determine whether these observations were of relevance to tumor therapy in vivo, the inventors used an ex ovo chorioallantoic membrane (CAM) xenograft model in live chicken embryos^40. MDA-MB-231 or HT-1080 cells, or cells expressing either the NHE6^527-588 competing fragment or its scrambled counterpart were inoculated onto the CAM of 9-day-old chick embryos. After allowing 3 days for cells to engraft, tumors were treated with Doxorubicin or PBS. Four days later, chick embryos were euthanized, and tumors were removed for analysis (FIG. 10A). To first ascertain that tumors implanted in CAM developed hypoxia, total mRNA was extracted from tumors generated by untransfected HT-1080 cells and gene expression of the hypoxic markers CA9, GLUT1 and MCT4 was measured by qPCR. […]

For `COc1cccc2c1C(=O)c1c(O)c3c(c(O)c1C2=O)C[C@@](O)(C(=O)CO)C[C@@H]3O[C@H]1C[C@H](N)[C@H](O)[C@H](C)O1` [Dox, doxorubicin], the IC50 (HT1080 cancer cell line; HT-1080, Experiment 1, peptide: Vehicle, 1% O2) was 83.8 nM, the IC50 (HT1080 cancer cell line; HT-1080, Experiment 1, peptide: Vehicle, 21% O2) was 16 nM and the IC50 (HT1080 cancer cell line; HT-1080, Experiment 1, with C2 0.25 μM, 1% O2) was 39.7 nM. For the same molecule, the IC50 (HT1080 cancer cell line; HT-1080, Experiment 1, with C2 0.25 μM, 21% O2) was 12.2 nM, the IC50 (HT1080 cancer cell line; HT-1080, Experiment 1, with C2 5.00 μM, 1% O2) was 39.1 nM and the IC50 (HT1080 cancer cell line; HT-1080, Experiment 1, with C2 5.00 μM, 21% O2) was 17.2 nM. The IC50 (HT1080 cancer cell line; HT-1080, Experiment 1, with C2WY→AA 0.25 μM, 1% O2) was 99.1 nM, the IC50 (HT1080 cancer cell line; HT-1080, Experiment 1, with C2WY→AA 0.25 μM, 21% O2) was 21.3 nM and the IC50 (HT1080 cancer cell line; HT-1080, Experiment 1, with C2WY→AA 5.00 μM, 1% O2) was 76.4 nM. For the same molecule, the IC50 (HT1080 cancer cell line; HT-1080, Experiment 1, with C2WY→AA 5.00 μM, 21% O2) was 16.4 nM, the IC50 (HT1080 cancer cell line; HT-1080, Experiment 2, peptide: Vehicle, 1% O2) was 70 nM and the IC50 (HT1080 cancer cell line; HT-1080, Experiment 2, peptide: Vehicle, 21% O2) was 13.4 nM. For the same molecule, the IC50 (HT1080 cancer cell line; HT-1080, Experiment 2, with C2 0.25 μM, 1% O2) was 30.6 nM, the IC50 (HT1080 cancer cell line; HT-1080, Experiment 2, with C2 0.25 μM, 21% O2) was 11.7 nM and the IC50 (HT1080 cancer cell line; HT-1080, Experiment 2, with C2 20.0 μM, 1% O2) was 15.7 nM. The IC50 (HT1080 cancer cell line; HT-1080, Experiment 2, with C2 20.0 μM, 21% O2) was 10 nM, the IC50 (HT1080 cancer cell line; HT-1080, Experiment 2, with C2WY→AA 0.25 μM, 1% O2) was 98.9 nM and the IC50 (HT1080 cancer cell line; HT-1080, Experiment 2, with C2WY→AA 0.25 μM, 21% O2) was 12.5 nM. It also gave an IC50 (HT1080 cancer cell line; HT-1080, Experiment 2, with C2WY→AA 20.0 μM, 1% O2) of 74.3 nM, an IC50 (HT1080 cancer cell line; HT-1080, Experiment 2, with C2WY→AA 20.0 μM, 21% O2) of 10.9 nM and an IC50 ([1]; HT-1080, HT-1080 expressing scrambled peptide (scr), 1% O2) of 521 nM. The IC50 ([1]; HT-1080, HT-1080 expressing scrambled peptide (scr), 21% O2) was 117 nM, the IC50 ([1]; HT-1080, HT-1080 overexpressing NHE6^527-588 peptide, 1% O2) was 224 nM and the IC50 ([1]; HT-1080, HT-1080 overexpressing NHE6^527-588 peptide, 21% O2) was 137 nM. The Fold ([1]; NHE6^527-588, 1% O2 vs 21% O2) was 1.6 fold, the Fold ([1]; scr, 1% O2 vs 21% O2) was 4.4 fold and the tumor growth (HT-1080 tumor xenografts; 0.5 μM Dox) was “unaffected”. For the same molecule, the tumor growth (HT-1080 tumor xenografts; 2 μM Dox topical) was “significantly reduced”.
